The values that follow come from patent US20250017928A1, “OPHTHALMIC PHARMACEUTICAL COMPOSITIONS CONTAINING A NITRIC OXIDE-RELEASING PHOSPHODIESTERASE 5 INHIBITOR AND METHOD FOR THE PREPARATION THEREOF” (Nicox SA, priority 2021, published 2025).

A short description of this data set: Aqueous solubility of Compound (I) and its salts. It is filed as physicochemical. Particulars: aqueous medium; free base. The text has this: In an effort to enhance the solubility of Compound (I) in aqueous vehicle, ‘salt forms’ of Compound (I) were explored.

As usually defined, the solubility is how much of the substance goes into solution per volume. With `COc1ccc(CNc2nc(N3CCC[C@H]3COC(=O)CCCCCO[N+](=O)[O-])ncc2C(=O)NCc2ncccn2)cc1Cl` [Compound (I), [(2S)-1-(4-{[(3-chloro-4-methoxyphenyl)methyl]amino}-5-{[(pyrimidin-2-yl)methyl]carbamoyl}pyrimidin-2-yl)pyrrolidin-2-yl]methyl 6-(nitrooxy)hexanoate], the solubility was found to be 13 µg/mL.
